Results as given in patent US9617276B2, “Compounds and methods for treating AIDS and HIV infections” (priority 2009, dated 2017).
Where two headings read alike, the source gives them in different places.

Key:
HIV-1 protease = biological target: T1, HIV-1 protease (Human immunodeficiency virus type 1 group M subtype B, UniProt P04585); experiment: HIV protease enzyme inhibition, fluorometric assay of Toth and Marshall; format: biochemical; conditions: Table 4; read-out: Ki
T1 construct: A simple, continuous fluorometric assay for HIV protease
Experimental: (§1) The inhibitory potencies of acyclic and cyclic inhibitors were measured by the assay protocol of Toth and Marshall (Toth, M. V.; Marshall, G. R. A simple, continuous fluorometric assay for HIV protease. Int. J. Pep. Protien Res. 1990, 36, 544-55).

HIV-1 = experiment: antiviral assay (IC50); format: cell-based; conditions: read-out: IC50
Experimental: as §1

HIV-1246-1μM = experiment: microbe, parasite or virus in culture; format: cell-based, HIV-1; conditions: Human immunodeficiency virus 1, MT4, read-out: EC50 (μM), HIV-1246-1 μM
Experimental: (§2) Briefly, MT-2 cells (2×10^4/ml) were exposed to 100 50% tissue culture infectious doses (TCID50S) of HIV-1LAI, in the presence or absence of various concentrations of drugs in 96-well microculture plates and were incubated at 37° C. for 7 days. After 100 μl of the medium was removed from each well, 3-(4,5-dimetylthiazol-2-yl)-2,5-diphenyltetrazolium bromide (MTT) solution (10 μl, 7.5 mg/ml in phosphate-buffered saline) was added to each well in the plate, followed by incubation at 37° C. for 3 h. […] All assays were performed in duplicate or triplicate. […] To determine the drug susceptibility of certain laboratory HIV-1 strains, MT-4 cells were used as target cells. In brief, MT-4 cells (10^5/ml) were exposed to 100 TCID50S of drug-resistant HIV-1 strains in the presence or absence of various concentrations of drugs and on day 7 of culture, the supernatant was harvested and the amounts of p24 Gag protein were determined. […] All assays were performed in duplicate or triplicate.
(§3) Numbers in parentheses represent n-fold changes in EC50s for each isolate compared to the EC50s for wild-type HIV-1NL4-3.

HIV-1396-1μM = experiment: microbe, parasite or virus in culture; format: cell-based, HIV-1; conditions: Human immunodeficiency virus 1, MT4, read-out: EC50 (μM), HIV-1396-1 μM
Experimental: as §2, §3

HIV-1216-P50 = experiment: microbe, parasite or virus in culture; format: cell-based, HIV-1; conditions: Human immunodeficiency virus 1, MT4, read-out: EC50 (μM), HIV-1216-p50
Experimental: as §2, §3

HIV-1NL4-3 = experiment: p24 Gag inhibition in MT-4 cells, HIV-1NL4-3; format: cell-based
Experimental: All assays were performed in duplicate or triplicate. […] All assays were performed in duplicate or triplicate.

HIV-1SQV5μM = experiment: microbe, parasite or virus in culture; format: cell-based; conditions: for EC50: Human immunodeficiency virus 1, MT4, read-out: EC50 (μM), HIV-1SQV5 μM
Experimental: (§4) The susceptibility of HIV-1LAI and primary HIV-1 isolates to various drugs were determined as described previously (Koh et al. 2003 Antimicrob Agents Chemother 47:3123-9). Briefly, MT-2 cells (2×10^4/ml) were exposed to 100 50% tissue culture infectious doses (TCID50S) of HIV-1LAI, in the presence or absence of various concentrations of drugs in 96-well microculture plates and were incubated at 37° C. for 7 days. After 100 μl of the medium was removed from each well, 3-(4,5-dimetylthiazol-2-yl)-2,5-diphenyltetrazolium bromide (MTT) solution (10 μl, 7.5 mg/ml in phosphate-buffered saline) was added to each well in the plate, followed by incubation at 37° C. for 3 h. […] All assays were performed in duplicate or triplicate. To determine the susceptibility of primary HIV-1 isolates to drugs, phytohemagglutinin-activated peripheral blood mononuclear cells (PHA-PBMCs; 106/ml) were exposed to 50 TCID50S of each. The target cells were exposed to HIV-1104pre or drug-resistant HIV-1 in the presence or absence of various concentrations of drugs and were incubated for 7 days. Upon the conclusion of the culture, the amounts of p24 Gag protein in the supernatants were determined using a fully automated chemiluminescent enzyme immunoassay system (Lumipulse F; Fujirebio Inc., Tokyo, Japan) (Maeda et al. 2001 J Biol Chem 276:35194-200). To determine the drug susceptibility of certain laboratory HIV-1 strains, MT-4 cells were used as target cells. In brief, MT-4 cells (10^5/ml) were exposed to 100 TCID50S of drug-resistant HIV-1 strains in the presence or absence of various concentrations of drugs and on day 7 of culture, the supernatant was harvested and the amounts of p24 Gag protein were determined. […] All assays were performed in duplicate or triplicate.
as §3

HIV-1AZV5μM = experiment: microbe, parasite or virus in culture; format: cell-based; conditions: for EC50: Human immunodeficiency virus 1, MT4, read-out: EC50 (μM), HIV-1AZV5 μM
Experimental: as §4, §3

HIV-1LPV5μM = experiment: microbe, parasite or virus in culture; format: cell-based; conditions: for EC50: Human immunodeficiency virus 1, MT4, read-out: EC50 (μM), HIV-1LPV5 μM
Experimental: as §4, §3

HIV-1NFV5μM = experiment: microbe, parasite or virus in culture; format: cell-based; conditions: for EC50: Human immunodeficiency virus 1, MT4, read-out: EC50 (μM), HIV-1NPV5 μM
Experimental: as §4, §3

HIV-1APV5μM = experiment: microbe, parasite or virus in culture; format: cell-based; conditions: for EC50: Human immunodeficiency virus 1, MT4, read-out: EC50 (μM), HIV-1APV5 μM
Experimental: as §4, §3

HIV-1MDR/MM = experiment: microbe, parasite or virus in culture; format: cell-based
Experimental: as §4
(§5) These clinical strains contained 9 to 14 amino acid substitutions in the protease-encoding region, which have reportedly been associated with HIV-1 resistance to various PIs.
(§6) Amino acid substitutions identified in the protease-encoding region compared to the consensus type B sequence cited from the Los Alamos database include L63P in HIV-1ERS104pre; L10I, K14R, L33I, M36I, M46I, F53I, K55R, I62V, L63P, A71V, G73S, V82A, L90M, and I93L in HIV-1MDR/B; L10I, I15V, K20R, L24I, M36I, M46L, I54V, I62V, L63P, K70Q, V82A, and L89M in HIV-1MDR/C; L10I, V11I, T12E, I15V, L19I, R41K, M46L, L63P, A71T, V82A, and L90M in HIV-1MDR/G; L10I, K14R, R41K, M46L, I54V, L63P, A71V, V82A, L90M, I93L in HIV-1MDR/TM; L10I, K43T, M46L, I54V, L63P, A71V, V82A, L90M, and Q92K in HIV-1MDR/MM; L10I, L24I, I33F, E35D, M36I, N37S, M46L, I54V, R57K, I62V, L63P, A71V, G73S, and V82A in HIV-1MDR/JSL. HIV-1ERS104pre served as a source of wild-type HIV-1. EC50s were determined by using PHA-PBMs as target cells, and inhibition of p24 Gag protein production by each drug was used as an end point. Numbers in parentheses represent n-fold changes of EC50s for each isolate compared to EC50s for wild-type HIV-1ERS104pre.

HIV-1MDR/JSL = experiment: microbe, parasite or virus in culture; format: cell-based
Experimental: as §4, §5, §6

[1] = test system: HIV-1ERS104pre (wild-type); experiment: p24 Gag inhibition in PHA-PBMCs, HIV-1ERS104pre; format: cell-based; conditions: mean ± 1 SD
Experimental: as §4, §5, §6

HIV-1MDR/B = format: cell-based
Experimental: as §4, §5, §6

HIV-1MDR/TM = format: cell-based
Experimental: as §4, §5, §6

HIV-1MDR/C = format: cell-based
Experimental: as §4, §5, §6

HIV-1MDR/G = format: cell-based
Experimental: as §4, §5, §6

[2] = compared to wild-type HIV-1ERS104pre
[3] = compared to wild-type HIV-1NL4-3

COc1ccc2c(c1)OCCCCC=CCC(C)CN(CC(O)C(Cc1ccccc1)NC(=O)OC1COC3OCCC13)S2(=O)=O (centres unmarked) [Compound 21c]
Ki (HIV-1 protease): < 1 nM | IC50 (HIV-1; Table 4): < 100 nM

COc1ccc2c(c1)OCCCCCCCC(C)(C)CN(CC(O)C(Cc1ccccc1)NC(=O)OC1COC3OCCC13)S2(=O)=O (centres unmarked) [Compound 22a]
Ki (HIV-1 protease): < 10 nM | IC50 (HIV-1; Human immunodeficiency virus 1, Table 4): > 1000 nM

COc1ccc2c(c1)OCCCCCCCC(C)CN(CC(O)C(Cc1ccccc1)NC(=O)OC1COC3OCCC13)S2(=O)=O (centres unmarked) [Compound 22b]
Ki (HIV-1 protease): < 1 nM | IC50 (HIV-1; Table 4): < 1000 nM

COc1ccc2c(c1)OCCCCCCCC(C)CN(CC(O)C(Cc1ccccc1)NC(=O)OC1COC3OCCC13)S2(=O)=O (centres unmarked) [Compound 22c]
Ki (HIV-1 protease): < 1 nM | IC50 (HIV-1; Table 4): < 100 nM

Cc1c(O)cccc1C(=O)N[C@@H](CSc1ccccc1)[C@H](O)CN1C[C@H]2CCCC[C@H]2C[C@H]1C(=O)NC(C)(C)C [NFV, Nelfinavir]
EC50 (HIV-1246-1μM): 0.29 ± 0.006 µM | EC50 (HIV-1396-1μM): 0.22 ± 0.02 µM | EC50 (HIV-1216-P50): 0.13 ± 0.04 µM | EC50 (HIV-1NL4-3; Human immunodeficiency virus 1, MT4, Table 9, mean ± 1 SD, read-out: EC50 (μM), HIV-1NL4-3): 0.04 ± 0.007 µM | EC50 (HIV-1SQV5μM): 0.51 ± 0.081 µM | EC50 (HIV-1AZV5μM): > 1 µM | EC50 (HIV-1LPV5μM): 0.32 ± 0.12 µM | EC50 (HIV-1NFV5μM): > 1 µM | EC50 (HIV-1APV5μM): 0.3 ± 0.03 µM

CC(C)(C)NC(=O)[C@@H]1C[C@@H]2CCCC[C@@H]2CN1C[C@@H](O)[C@H](Cc1ccccc1)NC(=O)[C@H](CC(N)=O)NC(=O)c1ccc2ccccc2n1 [SQV, Saquinavir]
EC50 (HIV-1MDR/MM; Human immunodeficiency virus 1, read-out: EC50 (μM), HIV-1MDR/MM (NSI)): 0.19 ± 0.05 µM | n-fold change of EC50, HIV-1MDR/MM (HIV-1MDR/MM; [2]): (24) | EC50 (HIV-1MDR/JSL; Human immunodeficiency virus 1, read-out: EC50 (μM), HIV-1MDR/JSL (NSI)): 0.3 ± 0.02 µM | n-fold change of EC50, HIV-1MDR/JSL (HIV-1MDR/JSL; [2]): (37) | EC50 (μM), HIV-1ERS104pre (wild-type SI) [1]: 0.008 ± 0.005 µM | EC50 (HIV-1NL4-3; Human immunodeficiency virus 1, MT4, read-out: EC50 (μM), HIV-1NL4-3, Table 7, mean ± 1 SD): 0.005 ± 0.002 µM | EC50 (μM), HIV-1MDR/B (SI) (HIV-1MDR/B; PHA-PBMCs, p24 Gag): 0.27 ± 0.073 µM | n-fold change of EC50, HIV-1MDR/B (HIV-1MDR/B; [2]): (34) | EC50 (μM), HIV-1MDR/TM (SI) (HIV-1MDR/TM; PHA-PBMCs, p24 Gag): 0.26 ± 0.04 µM | n-fold change of EC50, HIV-1MDR/TM (HIV-1MDR/TM; [2]): (33) | EC50 (μM), HIV-1MDR/C (SI) (HIV-1MDR/C; PHA-PBMCs, p24 Gag): 0.032 ± 0.002 µM | n-fold change of EC50, HIV-1MDR/C (HIV-1MDR/C; [2]): (11) | EC50 (μM), HIV-1MDR/G (SI) (HIV-1MDR/G; PHA-PBMCs, p24 Gag): 0.030 ± 0.002 µM | n-fold change of EC50, HIV-1MDR/G (HIV-1MDR/G; [2]): (4) | EC50 (HIV-1SQV5μM): > 1 µM | n-fold change in EC50, HIV-1SQV5 μM (HIV-1SQV5μM; [3]): > 200 | EC50 (HIV-1AZV5μM): 0.031 ± 0.005 µM | n-fold change in EC50, HIV-1AZV5 μM (HIV-1AZV5μM; [3]): (6) | EC50 (HIV-1LPV5μM): 0.028 ± 0.007 µM | n-fold change in EC50, HIV-1LPV5 μM (HIV-1LPV5μM; [3]): (6) | EC50 (HIV-1NFV5μM): 0.003 ± 0.002 µM | n-fold change in EC50, HIV-1NPV5 μM (HIV-1NFV5μM; [3]): (1) | EC50 (HIV-1APV5μM): 0.026 ± 0.01 µM | n-fold change in EC50, HIV-1APV5 μM (HIV-1APV5μM; [3]): (5)
